# From BindingDB's records for doi:10.1016/S0960-894X(01)80380-2 (1994)
# Test: Inhibition of ADP-mediated platelet aggregation in human gel-filtered platelets
row,Structure (SMILES),IC50 [nM]
1,O=C(O)CCNC(=O)c1cccc(C(=O)NCCC2CCNCC2)c1 [3-[3-(2-Piperidin-4-yl-ethylcarbamoyl)-benzoylamino]-propionic acid],530
2,O=C(O)CCNC(=O)c1ccnc(C(=O)NCCC2CCNCC2)c1 [3-{[2-(2-Piperidin-4-yl-ethylcarbamoyl)-pyridine-4-carbonyl]-amino}-propionic acid],1600
3,"O=C(O)CCN1Cc2ccc(C(=O)NCCC3CCNCC3)cc2C1=O [3-[1-Oxo-6-(2-piperidin-4-yl-ethylcarbamoyl)-1,3-dihydro-isoindol-2-yl]-propionic acid]",10000

# Results, then the molecule that gave them:
row,IC50 [nM],Structure (SMILES)
1,300000,O=C(O)CCNC(=O)c1cccc(C(=O)NCCC2CCNCC2)n1 [3-{[6-(2-Piperidin-4-yl-ethylcarbamoyl)-pyridine-2-carbonyl]-amino}-propionic acid]
2,1100,O=C(O)CCNC(=O)c1cc(C(=O)NCCC2CCNCC2)ccn1 [3-{[4-(2-Piperidin-4-yl-ethylcarbamoyl)-pyridine-2-carbonyl]-amino}-propionic acid]
3,2000,O=C(O)CCNC(=O)c1cncc(C(=O)NCCC2CCNCC2)c1 [3-{[5-(2-Piperidin-4-yl-ethylcarbamoyl)-pyridine-3-carbonyl]-amino}-propionic acid]
